These compounds were tested against DGKα (Homo sapiens (Human), UniProt P23743) (assay: Human DGKα kinase activity inhibition assay (ADP-Glo)). Details: recombinant full-length human DGKα, 55 μM ATP, 7 μM 1,2-dioleoyl-sn-glycerol, read-out: IC50 values of examples in in vitro human DGKa kinase activity inhibition assays.
Assay type: biochemical
Method in brief: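 Activity was measured as ADP production, detected by luciferase luminescence after removal of unused ATP. The enzyme was baculovirus-expressed full-length human DGKα with a C-terminal FLAG tag. The substrate was 1,2-dioleoyl-sn-glycerol in detergent micelles, and compounds came from 100× DMSO solutions.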

Chain of DGKα (P23743 other isoform, or with tags, fused parts or gaps): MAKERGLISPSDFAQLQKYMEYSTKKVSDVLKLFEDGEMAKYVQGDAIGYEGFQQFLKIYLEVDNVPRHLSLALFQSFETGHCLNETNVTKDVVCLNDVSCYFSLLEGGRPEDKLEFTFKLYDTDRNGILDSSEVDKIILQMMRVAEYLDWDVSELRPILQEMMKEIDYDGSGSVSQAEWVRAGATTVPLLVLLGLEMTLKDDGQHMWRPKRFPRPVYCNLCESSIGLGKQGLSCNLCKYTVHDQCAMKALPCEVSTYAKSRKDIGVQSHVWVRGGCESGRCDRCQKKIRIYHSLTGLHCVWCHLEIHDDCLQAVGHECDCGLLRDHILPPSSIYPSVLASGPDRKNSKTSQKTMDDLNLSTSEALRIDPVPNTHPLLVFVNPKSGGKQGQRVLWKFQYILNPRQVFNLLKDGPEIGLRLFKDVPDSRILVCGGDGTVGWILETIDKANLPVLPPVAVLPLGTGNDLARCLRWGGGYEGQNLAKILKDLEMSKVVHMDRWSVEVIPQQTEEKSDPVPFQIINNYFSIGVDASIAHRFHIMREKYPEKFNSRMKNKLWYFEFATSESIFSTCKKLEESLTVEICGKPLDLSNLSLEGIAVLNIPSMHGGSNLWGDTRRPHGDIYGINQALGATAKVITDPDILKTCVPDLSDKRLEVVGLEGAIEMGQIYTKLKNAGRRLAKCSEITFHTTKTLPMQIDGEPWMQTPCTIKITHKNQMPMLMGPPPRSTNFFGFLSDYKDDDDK

Question: With `Cc1ccc2oc(C3CCN(c4c(C#N)c(=O)n(C)c5cc(O)c(C)cc45)CC3)nc2c1` [Example 428, 7-hydroxy-1,6-dimethyl-4-[4-(5-methyl-1,3-benzoxazol-2-yl)piperidin-1-yl]-2-oxo-1,2-dihydroquinoline-3-carbonitrile] as the compound, how does the IC50 read?
Answer: 0.6 nM

Question: With `Cn1c(=O)c(C#N)c(N2CCC(c3nnc(-c4cccc(C(F)(F)F)c4)o3)CC2)c2cc(Br)ccc21` [Example 435, 6-bromo-1-methyl-2-oxo-4-(4-{5-[3-(trifluoromethyl)phenyl]-1,3,4-oxadiazol-2-yl}piperidin-1-yl)-1,2-dihydroquinoline-3-carbonitrile] as the compound, how does the IC50 read?
Answer: 4.3 nM

Question: With `COc1ccc2c(c1)c(N1CCC(c3nc(-c4cccc(C)c4)no3)CC1)c(C#N)c(=O)n2C` [Example 436, 6-methoxy-1-methyl-4-{4-[3-(3-methylphenyl)-1,2,4-oxadiazol-5-yl]piperidin-1-yl}-2-oxo-1,2-dihydroquinoline-3-carbonitrile] as the compound, how does the IC50 read?
Answer: 32 nM

Question: Which IC50 does the source give for `COc1ccc2c(c1)c(N1CCC(c3nc(-c4ccccc4)no3)CC1)c(C#N)c(=O)n2C` [Example 437, 6-methoxy-1-methyl-2-oxo-4-[4-(3-phenyl-1,2,4-oxadiazol-5-yl)piperidin-1-yl]-1,2-dihydroquinoline-3-carbonitrile] here?
Answer: 27 nM

Question: Which IC50 does the source give for `COc1ccc2c(c1)c(N1CCC(c3nc(-c4ccccc4C)no3)CC1)c(C#N)c(=O)n2C` [Example 438, 6-methoxy-1-methyl-4-{4-[3-(2-methylphenyl)-1,2,4-oxadiazol-5-yl]piperidin-1-yl}-2-oxo-1,2-dihydroquinoline-3-carbonitrile] here?
Answer: 31 nM

Question: How did the IC50 turn out when `COc1ccc2c(c1)c(N1CCC(c3nnc(-c4ccccc4)o3)CC1)c(C#N)c(=O)n2C` [Example 439, 6-methoxy-1-methyl-2-oxo-4-[4-(5-phenyl-1,3,4-oxadiazol-2-yl)piperidin-1-yl]-1,2-dihydroquinoline-3-carbonitrile] was run?
Answer: 492 nM

Question: With `Cn1c(=O)c(C#N)c(N2CCC(c3nc(-c4ccccc4)no3)CC2)c2cc(Br)ccc21` [Example 440, 6-bromo-1-methyl-2-oxo-4-[4-(3-phenyl-1,2,4-oxadiazol-5-yl)piperidin-1-yl]-1,2-dihydroquinoline-3-carbonitrile] as the compound, how does the IC50 read?
Answer: 8.9 nM

Question: Which IC50 does the source give for `Cn1c(=O)c(C#N)c(N2CCC(c3nnc(-c4ccccc4)o3)CC2)c2cc(Br)ccc21` [Example 441, 6-bromo-1-methyl-2-oxo-4-[4-(5-phenyl-1,3,4-oxadiazol-2-yl)piperidin-1-yl]-1,2-dihydroquinoline-3-carbonitrile] here?
Answer: 11 nM

Question: `Cc1ccccc1-c1nnc(C2CCN(c3c(C#N)c(=O)n(C)c4ccc(Br)cc34)CC2)o1` [Example 442, 6-bromo-1-methyl-4-{4-[5-(2-methylphenyl)-1,3,4-oxadiazol-2-yl]piperidin-1-yl}-2-oxo-1,2-dihydroquinoline-3-carbonitrile] was tested. Which IC50 did it give?
Answer: 15 nM

Question: With `Cc1cccc(-c2nnc(C3CCN(c4c(C#N)c(=O)n(C)c5ccc(Br)cc45)CC3)o2)c1` [Example 443, 6-bromo-1-methyl-4-{4-[5-(3-methylphenyl)-1,3,4-oxadiazol-2-yl]piperidin-1-yl}-2-oxo-1,2-dihydroquinoline-3-carbonitrile] as the compound, how does the IC50 read?
Answer: 9.1 nM

Question: Which IC50 does the source give for `Cc1ccccc1-c1nnc(C2CCN(c3c(C#N)c(=O)n(C)c4cc(O)ccc34)CC2)o1` [Example 444, 7-hydroxy-1-methyl-4-{4-[5-(2-methylphenyl)-1,3,4-oxadiazol-2-yl]piperidin-1-yl}-2-oxo-1,2-dihydroquinoline-3-carbonitrile] here?
Answer: 82 nM

Question: `Cc1ccccc1-c1nnc(C2CCN(c3c(C#N)c(=O)n(C)c4cc(O)c(Br)cc34)CC2)o1` [Example 445, 6-bromo-7-hydroxy-1-methyl-4-{4-[5-(2-methylphenyl)-1,3,4-oxadiazol-2-yl]piperidin-1-yl}-2-oxo-1,2-dihydroquinoline-3-carbonitrile] was tested. Which IC50 did it give?
Answer: 44 nM

Question: How did the IC50 turn out when `CNC(=O)c1c(N2CCC(c3nc4ccccc4o3)CC2)c2ccccc2n(C)c1=O` [Example 447, 4-[4-(1,3-benzoxazol-2-yl)piperidin-1-yl]-N,1-dimethyl-2-oxo-1,2-dihydroquinoline-3-carboxamide] was run?
Answer: 63 nM

Question: How did the IC50 turn out when `CNC(=O)c1c(N2CCC(c3nc4cc(C)ccc4o3)CC2)c2ccccc2n(C)c1=O` [Example 448, N,1-dimethyl-4-[4-(5-methyl-1,3-benzoxazol-2-yl)piperidin-1-yl]-2-oxo-1,2-dihydroquinoline-3-carboxamide] was run?
Answer: 27 nM

Question: How did the IC50 turn out when `CNC(=O)c1c(N2CCC(C)(c3nc4ccccc4o3)CC2)c2ccccc2n(C)c1=O` [Example 449, 4-[4-(1,3-benzoxazol-2-yl)-4-methylpiperidin-1-yl]-N,1-dimethyl-2-oxo-1,2-dihydroquinoline-3-carboxamide] was run?
Answer: 13 nM

Question: For `Cn1c(=O)c(C(N)=O)c(N2CCC(c3nc4cc(N5CCCC5=O)ccc4o3)CC2)c2ccccc21` [Example 450, 1-methyl-2-oxo-4-{4-[5-(2-oxopyrrolidin-1-yl)-1,3-benzoxazol-2-yl]piperidin-1-yl}-1,2-dihydroquinoline-3-carboxamide], which IC50 is on record?
Answer: 119 nM

Question: How did the IC50 turn out when `COC1(c2cccc(Cl)c2)CCN(c2c(C(N)=O)c(=O)n(C)c3ccccc23)CC1` [Example 451, 4-[4-(3-chlorophenyl)-4-methoxypiperidin-1-yl]-1-methyl-2-oxo-1,2-dihydroquinoline-3-carboxamide] was run?
Answer: 163 nM

Question: Which IC50 does the source give for `Cc1ccc2oc(C3(C)CCN(c4c(C(N)=O)c(=O)n(C)c5ccc(P(C)(C)=O)cc45)CC3)nc2c1` [Example 452, 6-(dimethylphosphoryl)-1-methyl-4-[4-methyl-4-(5-methyl-1,3-benzoxazol-2-yl)piperidin-1-yl]-2-oxo-1,2-dihydroquinoline-3-carboxamide] here?
Answer: 2570 nM

Question: Which IC50 does the source give for `Cc1ccc2oc(C3CCN(c4c(C(N)=O)c(=O)n(C)c5ccc(P(C)(C)=O)cc45)CC3)nc2c1` [Example 453, 6-(dimethylphosphoryl)-1-methyl-4-[4-(5-methyl-1,3-benzoxazol-2-yl)piperidin-1-yl]-2-oxo-1,2-dihydroquinoline-3-carboxamide] here?
Answer: 598 nM

Question: Which IC50 does the source give for `Cc1ccc2oc(C3CCN(c4c(C(N)=O)c(=O)n(C)c5ccc(S(C)(=O)=O)cc45)CC3)nc2c1` [Example 454, 6-(methanesulfonyl)-1-methyl-4-[4-(5-methyl-1,3-benzoxazol-2-yl)piperidin-1-yl]-2-oxo-1,2-dihydroquinoline-3-carboxamide] here?
Answer: 373 nM

Question: For `COC1(c2cc3ccccc3s2)CCN(c2c(C(N)=O)c(=O)n(C)c3ccccc23)CC1` [Example 455, 4-[4-(1-benzothiophen-2-yl)-4-methoxypiperidin-1-yl]-1-methyl-2-oxo-1,2-dihydroquinoline-3-carboxamide], which IC50 is on record?
Answer: 1.9 nM

Question: For `Cn1c(=O)c(C(N)=O)c(N2CCC(O)(c3cc4ccccc4s3)CC2)c2ccccc21` [Example 456, 4-[4-(1-benzothiophen-2-yl)-4-hydroxypiperidin-1-yl]-1-methyl-2-oxo-1,2-dihydroquinoline-3-carboxamide], which IC50 is on record?
Answer: 41 nM

Question: With `COc1ccc2cc(C3CCN(c4c(C(N)=O)c(=O)n(C)c5ccccc45)CC3)ccc2c1` [Example 457, 4-[4-(6-methoxynaphthalen-2-yl)piperidin-1-yl]-1-methyl-2-oxo-1,2-dihydroquinoline-3-carboxamide] as the compound, how does the IC50 read?
Answer: 6.8 nM

Question: For `Cc1ccccc1-c1noc(C2CCN(c3c(C(N)=O)c(=O)n(C)c4ccccc34)CC2)n1` [Example 458, 1-methyl-4-{4-[3-(2-methylphenyl)-1,2,4-oxadiazol-5-yl]piperidin-1-yl}-2-oxo-1,2-dihydroquinoline-3-carboxamide], which IC50 is on record?
Answer: 4.3 nM

Question: Which IC50 does the source give for `COc1ccc(-c2noc(C3CCN(c4c(C(N)=O)c(=O)n(C)c5ccccc45)CC3)n2)cc1` [Example 459, 4-{4-[3-(4-methoxyphenyl)-1,2,4-oxadiazol-5-yl]piperidin-1-yl}-1-methyl-2-oxo-1,2-dihydroquinoline-3-carboxamide] here?
Answer: 9.8 nM

Question: `Cc1cccc(-c2noc(C3CCN(c4c(C(N)=O)c(=O)n(C)c5ccccc45)CC3)n2)c1` [Example 460, 1-methyl-4-{4-[3-(3-methylphenyl)-1,2,4-oxadiazol-5-yl]piperidin-1-yl}-2-oxo-1,2-dihydroquinoline-3-carboxamide] was tested. Which IC50 did it give?
Answer: 3.5 nM

Question: How did the IC50 turn out when `Cc1ccccc1-c1nnc(C2CCN(c3c(C(N)=O)c(=O)n(C)c4ccccc34)CC2)o1` [Example 461, 1-methyl-4-{4-[5-(2-methylphenyl)-1,3,4-oxadiazol-2-yl]piperidin-1-yl}-2-oxo-1,2-dihydroquinoline-3-carboxamide] was run?
Answer: 77 nM

Question: `Cc1ccc(-c2nnc(C3CCN(c4c(C(N)=O)c(=O)n(C)c5ccccc45)CC3)o2)cc1` [Example 462, 1-methyl-4-{4-[5-(4-methylphenyl)-1,3,4-oxadiazol-2-yl]piperidin-1-yl}-2-oxo-1,2-dihydroquinoline-3-carboxamide] was tested. Which IC50 did it give?
Answer: 121 nM

Question: With `Cc1cccc(-c2nnc(C3CCN(c4c(C(N)=O)c(=O)n(C)c5ccccc45)CC3)o2)c1` [Example 463, 1-methyl-4-{4-[5-(3-methylphenyl)-1,3,4-oxadiazol-2-yl]piperidin-1-yl}-2-oxo-1,2-dihydroquinoline-3-carboxamide] as the compound, how does the IC50 read?
Answer: 113 nM

Question: `Cn1c(=O)c(C(N)=O)c(N2CCC(c3nnc(-c4cccc(Cl)c4)o3)CC2)c2ccccc21` [Example 464, 4-{4-[5-(3-chlorophenyl)-1,3,4-oxadiazol-2-yl]piperidin-1-yl}-1-methyl-2-oxo-1,2-dihydroquinoline-3-carboxamide] was tested. Which IC50 did it give?
Answer: 123 nM

Question: Which IC50 does the source give for `Cn1c(=O)c(C(N)=O)c(N2CCC(C)(c3nnc(-c4cccc(Cl)c4)o3)CC2)c2ccccc21` [Example 465, 4-{4-[5-(3-chlorophenyl)-1,3,4-oxadiazol-2-yl]-4-methylpiperidin-1-yl}-1-methyl-2-oxo-1,2-dihydroquinoline-3-carboxamide] here?
Answer: 175 nM

Question: With `CC1Cc2cc(C3CCN(c4c(C(N)=O)c(=O)n(C)c5ccccc45)CC3)ccc2O1` (centres unmarked) [Example 466, 1-methyl-4-{4-[2-methyl-2,3-dihydro-1-benzofuran-5-yl]piperidin-1-yl}-2-oxo-1 2-dihydroquinoline-3-carboxamide] as the compound, how does the IC50 read?
Answer: 0.5 nM

Source: US11998539B2, “Substituted aminoquinolones as DGKalpha inhibitors for immune activation” (Bayer Aktiengesellschaft, priority 2019, dated 2024)
